Values quoted from earlier work in US6887210B2, “Devices and methods for obtaining mammary fluid samples for evaluating breast diseases, including cancer” (Atossa Healthcare, Inc., priority 2000, dated 2005).

Conditions: rapid removal from plasma by kidney, liver and mammary gland

half-life of oxytocin in the human bloodstream / circulation: 10 to 15 min
Compound: CC[C@H](C)[C@@H]1NC(=O)[C@H](Cc2ccc(O)cc2)NC(=O)[C@@H](N)CSSC[C@@H](C(=O)N2CCC[C@H]2C(=O)N[C@@H](CC(C)C)C(=O)NCC(N)=O)NC(=O)[C@H](CC(N)=O)NC(=O)[C@H](CCC(N)=O)NC1=O [oxytocin]
